Ends that are not written are not given here. * marks the point of attachment. Myristoyl = CCCCCCCCCCCCCC(=O)*
Key:
sebaceous glands = assay: Sebum production and maturation of sebaceous glands in newborn BalbC mice topically treated with visfatin antagonist siRNAs (Oil Red O, H&E, gland counts); type: in vivo, Mus musculus; settings: siRNA free second control solution (PBS, 0.1% DMSO, 1 μg/ml MPDY), day 5 after birth
Method: Hematoxylin & Eosin Staining: Paraffin embedded skin biopsy section slides were incubated at 60° C. for 60 minutes and deparaffinized by washing the slides twice with toluene (100%) for 10 minutes and rehydrating the skin biopsy section slides in decreasing concentration of ethanol (100-50%) for 5 minutes each. The slides then were stained with a ready to use solution of hematoxylin for 5 minutes, rinsed with water, stained with eosin (0.5% in double distilled water) for 1.5 minutes and washed twice by rapid immersion in 70% ethanol. Thereafter, the slides were dehydrated by washing once with 95% ethanol for 5 minutes, twice with 100% ethanol for 5 minutes and twice with xylene (100%) for 10 minutes. This was followed by the application of ENTELLAN™ (Merck KGaA, Darmstadt, Germany) and the mounting of coverslips.
Oil Red O Staining: Frozen skin biopsy section slides were fixed in 1% neutral-buffered formalin for 5 minutes, washed in deionized water, and incubated in 60% isopropanol for 5 minutes. Skin biopsy section slides were stained with a fresh, filtered Oil Red O working solution which had been prepared immediately beforehand by making a 2:3 mixture of stock (0.5% Oil Red O in 99% isopropanol) and deionized water. […]

sebum production = settings: background statement; cited from earlier work

Compound	effect of peptide alone on sebum production and skin (sebaceous glands)	decrease of sebum production (sebum production)
MPDY: cationic, lipophilic, N-myristoylated peptide having the amino acid sequence FARKGALRQ (SEQ ID NO: 27) (Myristoyl-FARKGALRQ)	did not inhibit sebum production or otherwise discernibly alter the skin	–
CC1=C(/C=C/C(C)=C/C=C/C(C)=C\C(=O)O)C(C)(C)CCC1 [Isotretinoin]	–	up to 90%

Reference: patent US9393284B2, “Visfatin therapeutic agents for the treatment of acne and other conditions” (ARAVA BIO-TECH LTD., priority 2009, dated 2016)
